Assay results from patent publication US12281122B1, “PI3K inhibitors” (Cogent Biosciences, Inc., priority 2023, dated 2025).

Columns and labels:
[1] = tested on: T47D (PI3Kα-H1047R) cell line; experiment: HTRF phospho-AKT(S473) cell assay in T47D cells; assay type: cell-based, human; settings: Homo sapiens, 2 hours compound incubation
Outline: (§1)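 pAKT(S473) in lysates read by HTRF after a 2 h, 37 °C compound exposure (12-point 1:3 series, max 0.5% DMSO). SKBR3 (wild type, top 10 μM) received 70 ng/ml PDGF-BB during the final 15 min; T47D (H1047R, top 5 μM) was unstimulated. IC50 values derived from the dose-response.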

[2] = tested on: SKBR3 (PI3Kα-Wild Type) cell line; experiment: HTRF phospho-AKT(S473) cell assay in SKBR3 cells; assay type: cell-based, human; settings: Homo sapiens, SK-BR-3, 2 hours compound incubation, PDGF-BB stimulated
Outline: as §1

[3] = HTRF phospho-AKT(S473), T47D (PI3Kα-H1047R) cells
[4] = HTRF phospho-AKT(S473), SKBR3 (PI3Kα-Wild Type) cells
[5] = T47D (PI3Kα-H1047R) cells, HTRF phospho-AKT(S473)
[6] = SKBR3 (PI3Kα-Wild Type) cells, HTRF phospho-AKT(S473)

| IC50 [1, 3] | IC50 [2, 4] | also measured | SMILES |
| --- | --- | --- | --- |
| < 0.25 µM | 1 to 5 µM | – | Cc1cc([C@@H](C)Nc2ccc(Cl)nc2C(=O)NS(C)(=O)=O)c2nc(N3CCN(c4nccnc4C)CC3)n(C)c(=O)c2c1 [Compound 553, (R)-6-chloro-3-((1-(3,6-dimethyl-2-(4-(3-methylpyrazin-2-yl)piperazin-1-yl)-4-oxo-3,4-dihydroquinazolin-8-yl)ethyl)amino)-N-(methylsulfonyl) picolinamide] |
| – | – | IC50 [1, 5]: 0.25 to 0.5 µM; IC50 [2, 6]: 1 to 5 µM | COc1ccn(C2CCN(c3nc4c([C@@H](C)Nc5ccc(Cl)nc5C(=O)NS(C)(=O)=O)cc(C)cc4c(=O)n3C)CC2)n1 [Compound 317, (R)-6-chloro-3-((1-(2-(4-(3-methoxy-1H-pyrazol-1-yl)piperidin-1-yl)-3,6-dimethyl-4-oxo-3,4-dihydroquinazolin-8-yl)ethyl)amino)-N-(methylsulfonyl) picolinamide] |
| 0.25 to 0.5 µM | ≥ 5 µM | – | Cc1cc([C@@H](C)Nc2ccc(Cl)nc2C(=O)NS(C)(=O)=O)c2nc(N3CCN(c4cc(C)nc(C)n4)CC3)n(C)c(=O)c2c1 [Compound 617, (R)-6-chloro-3-((1-(2-(4-(2,6-dimethylpyrimidin-4-yl)piperazin-1-yl)-3,6-dimethyl-4-oxo-3,4-dihydroquinazolin-8-yl)ethyl)amino)-N-(methylsulfonyl) picolinamide] |
| 0.25 to 0.5 µM | ≥ 5 µM | – | COc1cc(N2C[C@@H]3C[C@H]2CN3c2nc3c([C@@H](C)Nc4ccc(Cl)nc4C(=O)NS(C)(=O)=O)cc(C)cc3c(=O)n2C)ccn1 [Compound 637, 6-chloro-3-(((R)-1-(2-((1S,4S)-5-(2-methoxypyridin-4-yl)-2,5-diazabicyclo [2.2.1]heptan-2-yl)-3,6-dimethyl-4-oxo-3,4-dihydroquinazolin-8-yl)ethyl)amino)-N-(methylsulfonyl) picolinamide] |
| – | – | IC50 [1, 5]: < 0.25 µM; IC50 [2, 6]: 1 to 5 µM | Cc1cc([C@@H](C)Nc2ccc(Cl)nc2C(=O)NS(C)(=O)=O)c2nc(-c3ccc(-c4cnn(C)c4)cn3)n(C)c(=O)c2c1 [Compound 285, (R)-6-chloro-3-((1-(3,6-dimethyl-2-(5-(1-methyl-1H-pyrazol-4-yl)pyridin-2-yl)-4-oxo-3,4-dihydroquinazolin-8-yl)ethyl)amino)-N-(methylsulfonyl) picolinamide] |
| < 0.25 µM | 1 to 5 µM | – | Cc1ccn(C2CCN(c3nc4c([C@@H](C)Nc5ccc(Cl)nc5C(=O)NS(C)(=O)=O)cc(C)cc4c(=O)n3C)CC2)c(=O)c1 [Compound 753, (R)-6-chloro-3-((1-(3,6-dimethyl-2-(4-(4-methyl-2-oxopyridin-1(2H)-yl)piperidin-1-yl)-4-oxo-3,4-dihydroquinazolin-8-yl)ethyl)amino)-N-(methylsulfonyl) picolinamide] |
| – | – | IC50 [1, 5]: < 0.25 µM; IC50 [2, 6]: 1 to 5 µM | Cc1cc([C@@H](C)Nc2ccc(Cl)nc2C(=O)NS(C)(=O)=O)c2nc(N3CCC(c4cnn(C)c4)CC3)n(C)c(=O)c2c1 [Compound 181, (R)-6-chloro-3-((1-(3,6-dimethyl-2-(4-(1-methyl-1H-pyrazol-4-yl)piperidin-1-yl)-4-oxo-3,4-dihydroquinazolin-8-yl)ethyl)amino)-N-(methylsulfonyl) picolinamide] |
| – | – | IC50 [1, 5]: < 0.25 µM; IC50 [2, 6]: 1 to 5 µM | Cc1cc([C@@H](C)Nc2ccc(Cl)nc2C(=O)NS(C)(=O)=O)c2nc(N3CCN(c4ccc(C#N)cn4)[C@@H](C)C3)n(C)c(=O)c2c1 [Compound 196, 6-chloro-3-(((R)-1-(2-((S)-4-(5-cyanopyridin-2-yl)-3-methylpiperazin-1-yl)-3,6-dimethyl-4-oxo-3,4-dihydroquinazolin-8-yl)ethyl)amino)-N-(methylsulfonyl) picolinamide] |
| 0.25 to 0.5 µM | ≥ 5 µM | – | Cc1cc([C@@H](C)Nc2ccc(Cl)nc2C(=O)NS(C)(=O)=O)c2nc(N3CCC(c4n[nH]c(C)c4F)CC3)n(C)c(=O)c2c1 [Compound 547, (R)-6-chloro-3-((1-(2-(4-(4-fluoro-5-methyl-1H-pyrazol-3-yl)piperidin-1-yl)-3,6-dimethyl-4-oxo-3,4-dihydroquinazolin-8-yl)ethyl)amino)-N-(methylsulfonyl) picolinamide] |
| < 0.25 µM | 1 to 5 µM | – | Cc1cc([C@@H](C)Nc2ccc(Cl)nc2C(=O)NS(C)(=O)=O)c2nc(N3C[C@@H]4[C@H](C3)[C@H]4c3ccnn3C(F)F)n(C)c(=O)c2c1 [Compound 471, 6-chloro-3-(((R)-1-(2-((1R,5S,6R)-6-(1-(difluoromethyl)-1H-pyrazol-5-yl)-3-azabicyclo[3.1.0]hexan-3-yl)-3,6-dimethyl-4-oxo-3,4-dihydroquinazolin-8-yl)ethyl)amino)-N-(methylsulfonyl) picolinamide] |
| < 0.25 µM | 1 to 5 µM | – | [2H]C([2H])([2H])n1nccc1C1CCN(c2nc3c([C@@H](C)Nc4ccc(Cl)nc4C(=O)NS(C)(=O)=O)cc(C)cc3c(=O)n2C)CC1 [Compound 747, (R)-6-chloro-3-((1-(3,6-dimethyl-2-(4-(1-(methyl-d3)-1H-pyrazol-5-yl)piperidin-1-yl)-4-oxo-3,4-dihydroquinazolin-8-yl)ethyl)amino)-N-(methylsulfonyl) picolinamide] |
| – | – | IC50 ([1]; T47D (PI3Kα-H1047R) cell line, phospho-AKT(S473) HTRF): 0.25 to 0.5 µM; IC50 ([2]; SKBR3 (PI3Kα-Wild Type) cell line, phospho-AKT(S473) HTRF): ≥ 5 µM | COc1ncc(-c2nc3c([C@@H](C)Nc4ccc(Cl)nc4C(=O)NS(C)(=O)=O)cc(C)cc3c(=O)n2C)cn1 [Compound 856, (R)-6-chloro-3-((1-(2-(2-methoxypyrimidin-5-yl)-3,6-dimethyl-4-oxo-3,4-dihydroquinazolin-8-yl)ethyl)amino)-N-(methylsulfonyl) picolinamide] |
| 0.25 to 0.5 µM | ≥ 5 µM | – | Cc1cc([C@@H](C)Nc2ccc(Cl)nc2C(=O)NS(C)(=O)=O)c2nc(N3CCC[C@H](c4c[nH]nc4C)C3)n(C)c(=O)c2c1 (relative stereo) [Compound 703, 6-chloro-3-(((R)-1-(3,6-dimethyl-2-((R*)-3-(3-methyl-1H-pyrazol-4-yl)piperidin-1-yl)-4-oxo-3,4-dihydroquinazolin-8-yl)ethyl)amino)-N-(methylsulfonyl) picolinamide] |
| 0.25 to 0.5 µM | ≥ 5 µM | – | Cc1cc([C@@H](C)Nc2ccc(Cl)nc2C(=O)NS(C)(=O)=O)c2nc(N3CCC(n4cc(C(F)(F)F)cn4)CC3)n(C)c(=O)c2c1 [Compound 681, (R)-6-chloro-3-((1-(3,6-dimethyl-4-oxo-2-(4-(4-(trifluoromethyl)-1H-pyrazol-1-yl)piperidin-1-yl)-3,4-dihydroquinazolin-8-yl)ethyl)amino)-N-(methylsulfonyl) picolinamide] |
| 0.25 to 0.5 µM | 1 to 5 µM | – | Cc1cc([C@@H](C)Nc2ccc(Cl)nc2C(=O)NS(C)(=O)=O)c2nc(N3C[C@@H]4C[C@H]3CN4c3nccnc3C)n(C)c(=O)c2c1 [Compound 726, 6-chloro-3-(((R)-1-(3,6-dimethyl-2-((1S,4S)-5-(3-methylpyrazin-2-yl)-2,5-diazabicyclo[2.2.1]heptan-2-yl)-4-oxo-3,4-dihydroquinazolin-8-yl)ethyl)amino)-N-(methylsulfonyl) picolinamide] |
| 0.25 to 0.5 µM | 1 to 5 µM | – | COc1ccc(N2CCN(c3nc4c([C@@H](C)Nc5ccc(Cl)nc5C(=O)NS(C)(=O)=O)cc(C)cc4c(=O)n3C)CC2)cn1 [Compound 635, (R)-6-chloro-3-((1-(2-(4-(6-methoxypyridin-3-yl)piperazin-1-yl)-3,6-dimethyl-4-oxo-3,4-dihydroquinazolin-8-yl)ethyl)amino)-N-(methylsulfonyl) picolinamide] |
